In PubChem BioAssay AID1259407 (Chemical Carcinogenesis Research Information System (CCRIS), 2018) one finds mutagenic call data, which are given here for four compounds.

For the data set, the system named is CCRIS mutagenicity, Ames/micronucleus/aberration tests. Put plainly: CCRIS mutagenicity studies.
[1] abbreviates: Test System: AMES SALMONELLA TYPHIMURIUM, Strain/Indicator: TA98, Metabolic Activation: NONE, Method: STANDARD PLATE.
[2] abbreviates: Test System: AMES SALMONELLA TYPHIMURIUM, Strain/Indicator: TA98, Metabolic Activation: RAT, LIVER, S-9, AROCLOR 1254, Method: STANDARD PLATE.
The mark [3] stands for this setting: Test System: AMES SALMONELLA TYPHIMURIUM, Strain/Indicator: TA100, Metabolic Activation: NONE, Method: PREINCUBATION
Where [4] appears, read: Test System: AMES SALMONELLA TYPHIMURIUM, Strain/Indicator: TA100, Metabolic Activation: NONE, Method: STANDARD PLATE.
Where [5] appears, read: Test System: AMES SALMONELLA TYPHIMURIUM, Strain/Indicator: TA100, Metabolic Activation: RAT, LIVER, S-9, AROCLOR 1254, Method: STANDARD PLATE.
Setting [6] is: Test System: AMES SALMONELLA TYPHIMURIUM, Strain/Indicator: TA1535, Metabolic Activation: NONE, Method: STANDARD PLATE.
The mark [7] stands for this setting: Test System: AMES SALMONELLA TYPHIMURIUM, Strain/Indicator: TA1535, Metabolic Activation: RAT, LIVER, S-9, AROCLOR 1254, Method: STANDARD PLATE.
The mark [8] stands for this setting: Test System: AMES SALMONELLA TYPHIMURIUM, Strain/Indicator: TA1537, Metabolic Activation: NONE, Method: STANDARD PLATE.
The mark [9] stands for this setting: Test System: AMES SALMONELLA TYPHIMURIUM, Strain/Indicator: TA1537, Metabolic Activation: RAT, LIVER, S-9, AROCLOR 1254, Method: STANDARD PLATE.

Active and inactive are the calls of the source. No rule for the calls is given here.

Turning to `O=C/C=C/c1ccccc1`, the mutagenic call was “inactive; negative” (End Point: IN VITRO CHROMOSOMAL ABERRATIONS, Test System: CHINESE HAMSTER OVARY CELLS, Metabolic Activation: NONE); “inactive; negative” (End Point: IN VITRO CHROMOSOMAL ABERRATIONS, Test System: CHINESE HAMSTER OVARY CELLS, Metabolic Activation: RAT, LIVER, S-9, AROCLOR 1254); “inactive; negative” (End Point: IN VIVO MICRONUCLEUS, Test System: BONE MARROW POLYCHROMATIC ERYTHROCYTES, Species: MOUSE, Strain/Sex: DDY/MALE, Route: IP); “inactive; negative” (Test System: AMES SALMONELLA TYPHIMURIUM, Strain/Indicator: TA97, Metabolic Activation: NONE, Method: PREINCUBATION (120 MIN)); “inactive; negative” (Test System: AMES SALMONELLA TYPHIMURIUM, Strain/Indicator: TA97, Metabolic Activation: S-9, Method: PREINCUBATION (120 MIN)); “inactive; negative” (Test System: AMES SALMONELLA TYPHIMURIUM, Strain/Indicator: TA98, Metabolic Activation: HAMSTER, LIVER, S-9, AROCLOR 1254 (2.5-20%), Method: PREINCUBATION). The mutagenic call (Test System: AMES SALMONELLA TYPHIMURIUM, Strain/Indicator: TA98, Metabolic Activation: HAMSTER, LIVER, S-9, AROCLOR 1254, Method: STANDARD PLATE) was “inactive; negative”; the mutagenic call (Test System: AMES SALMONELLA TYPHIMURIUM, Strain/Indicator: TA98, Metabolic Activation: NONE, Method: PREINCUBATION (120 MIN)) is “inactive; negative”; the mutagenic call under setting [1] was “inactive; negative”; the mutagenic call under setting [2] was “inactive; negative”; the mutagenic call (Test System: AMES SALMONELLA TYPHIMURIUM, Strain/Indicator: TA98, Metabolic Activation: S-9, Method: PREINCUBATION (120 MIN)) is “inactive; negative”; the mutagenic call (Test System: AMES SALMONELLA TYPHIMURIUM, Strain/Indicator: TA100, Metabolic Activation: HAMSTER, LIVER, S-9, AROCLOR 1254 (2.5-20%), Method: PREINCUBATION) was “inactive; negative”. The mutagenic call is “inactive; negative” (Test System: AMES SALMONELLA TYPHIMURIUM, Strain/Indicator: TA100, Metabolic Activation: HAMSTER, LIVER, S-9, AROCLOR 1254, Method: STANDARD PLATE); “inactive; negative” under setting [3]; “inactive; negative” (Test System: AMES SALMONELLA TYPHIMURIUM, Strain/Indicator: TA100, Metabolic Activation: NONE, Method: PREINCUBATION (120 MIN)); “inactive; negative” under setting [4]; “inactive; negative” (Test System: AMES SALMONELLA TYPHIMURIUM, Strain/Indicator: TA100, Metabolic Activation: RAT LIVER S-9, AROCLOR 1254, Method: PREINCUBATION); “inactive; negative” (Test System: AMES SALMONELLA TYPHIMURIUM, Strain/Indicator: TA100, Metabolic Activation: RAT, LIVER, S-9, AROCLOR 1254, Method: PREINCUBATION). The mutagenic call reads like this: under setting [5], “inactive; negative”; (Test System: AMES SALMONELLA TYPHIMURIUM, Strain/Indicator: TA100, Metabolic Activation: S-9, Method: PREINCUBATION (120 MIN)) “inactive; negative”; (Test System: AMES SALMONELLA TYPHIMURIUM, Strain/Indicator: TA102, Metabolic Activation: HAMSTER, LIVER, S-9, AROCLOR 1254, Method: PREINCUBATION) “inactive; negative”; (Test System: AMES SALMONELLA TYPHIMURIUM, Strain/Indicator: TA102, Metabolic Activation: MOUSE LIVER S-9, AROCLOR 1254, Method: PREINCUBATION) “inactive; negative”; (Test System: AMES SALMONELLA TYPHIMURIUM, Strain/Indicator: TA102, Metabolic Activation: NONE, Method: PREINCUBATION) “inactive; negative”; (Test System: AMES SALMONELLA TYPHIMURIUM, Strain/Indicator: TA102, Metabolic Activation: RAT LIVER S-9, AROCLOR 1254, Method: PREINCUBATION) “inactive; negative”. Moreover, the mutagenic call (Test System: AMES SALMONELLA TYPHIMURIUM, Strain/Indicator: TA102, Metabolic Activation: RAT, LIVER, S-9, AROCLOR 1254, Method: PREINCUBATION) is “inactive; negative”; the mutagenic call (Test System: AMES SALMONELLA TYPHIMURIUM, Strain/Indicator: TA104, Metabolic Activation: MOUSE LIVER S-9, AROCLOR 1254, Method: PREINCUBATION) was “inactive; negative”; the mutagenic call (Test System: AMES SALMONELLA TYPHIMURIUM, Strain/Indicator: TA104, Metabolic Activation: NONE, Method: PREINCUBATION) is “inactive; negative”; the mutagenic call (Test System: AMES SALMONELLA TYPHIMURIUM, Strain/Indicator: TA104, Metabolic Activation: RAT LIVER S-9, AROCLOR 1254, Method: PREINCUBATION) is “inactive; negative”; the mutagenic call (Test System: AMES SALMONELLA TYPHIMURIUM, Strain/Indicator: TA1535, Metabolic Activation: HAMSTER, LIVER, S-9, AROCLOR 1254, Method: STANDARD PLATE) was “inactive; negative”; the mutagenic call under setting [6] is “inactive; negative”. Moreover, the mutagenic call was “inactive; negative” under setting [7]; “inactive; negative” (Test System: AMES SALMONELLA TYPHIMURIUM, Strain/Indicator: TA1537, Metabolic Activation: HAMSTER, LIVER, S-9, AROCLOR 1254, Method: STANDARD PLATE); “inactive; negative” (Test System: AMES SALMONELLA TYPHIMURIUM, Strain/Indicator: TA1537, Metabolic Activation: NONE, Method: PREINCUBATION); “inactive; negative” under setting [8]; “inactive; negative” under setting [9]; “inactive; negative” (Test System: AMES SALMONELLA TYPHIMURIUM, Strain/Indicator: TA1538, Metabolic Activation: HAMSTER, LIVER, S-9, AROCLOR 1254, Method: STANDARD PLATE). The mutagenic call (Test System: AMES SALMONELLA TYPHIMURIUM, Strain/Indicator: TA1538, Metabolic Activation: NONE, Method: STANDARD PLATE) is “inactive; negative”; the mutagenic call (Test System: AMES SALMONELLA TYPHIMURIUM, Strain/Indicator: TA1538, Metabolic Activation: RAT, LIVER, S-9, AROCLOR 1254, Method: STANDARD PLATE) is “inactive; negative”; the mutagenic call (Test System: MOUSE LYMPHOMA, Strain/Indicator: L5178Y (TK+/TK-), Metabolic Activation: NONE, Method: SUSPENSION/PLATE) was “active; positive. reevaluation of results: positive”; the mutagenic call (Test System: MOUSE LYMPHOMA, Strain/Indicator: L5178Y (TK+/TK-), Metabolic Activation: RAT, LIVER, S-9, AROCLOR 1254, Method: SUSPENSION/PLATE) is “active; positive. reevaluation of results: positive”.

`O=C(O)c1cc(Br)cc2cccnc12`: the mutagenic call is, setting by setting: under setting [1], “inactive; negative”; under setting [2], “inactive; negative”; under setting [4], “inactive; negative”; under setting [5], “inactive; negative”; under setting [6], “inactive; negative”; under setting [7], “inactive; negative”. The mutagenic call was “inactive; negative” under setting [8] and “inactive; negative” under setting [9].

Turning to `O=C(O)CCc1c[nH]c2ccccc12`, the mutagenic call under setting [3] was “inactive; negative”.

On to `CCOP(=O)=O.CCOP(=O)=O.CCOP(=O)=O.[Al+3]`, for which the mutagenic call (End Point: IN VIVO MICRONUCLEUS, Test System: BONE MARROW POLYCHROMATIC ERYTHROCYTES, Species: MOUSE, Strain/Sex: SWISS/MALE, FEMALE, Route: IP 2X IN AQUEOUS SUSPENSION WITHIN 24 HR) was “active; positive”.
